# Source: patent publication US6232450A, “Inhibition of human fucosyltransferases with N-linked Lewis-x and LacNAc analogs” (The Scripps Research Institute, priority 1999, dated 2001)
# Molecular target: T1, FucT V (Homo sapiens, UniProt Q11128)
# T1 sequence (Q11128 1-374): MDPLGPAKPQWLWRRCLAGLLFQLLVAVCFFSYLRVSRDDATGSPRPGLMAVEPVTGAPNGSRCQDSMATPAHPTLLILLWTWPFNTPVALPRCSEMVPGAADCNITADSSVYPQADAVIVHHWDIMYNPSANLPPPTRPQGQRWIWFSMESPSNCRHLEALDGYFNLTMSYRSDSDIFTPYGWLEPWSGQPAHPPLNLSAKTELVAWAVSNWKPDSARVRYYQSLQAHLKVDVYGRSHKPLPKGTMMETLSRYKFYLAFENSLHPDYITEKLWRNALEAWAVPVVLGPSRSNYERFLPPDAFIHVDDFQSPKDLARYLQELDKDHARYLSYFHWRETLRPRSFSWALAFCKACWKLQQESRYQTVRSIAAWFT
# Test: Test whether inhibitor is a slow substrate or an inactivator of FucT V (pre-incubation, then GDP-[U-14C]-fucose transfer)
# Assay type: biochemical
# Conditions: 0.010 mM inhibitor, 2.1 munits FucT V, 0.30 mM LacNAc-b-O-(CH2)5CO2CH3, 10 mM MnCl2, 100 mM MES pH 6.0, incubation 0-80 min at room temperature
# Method: A 0.350 mL solution that contained 10 mM MnCl2, 2.1 munits FucT V, 0.30 mM LacNAc-b-O-(CH2)5 CO2 CH3, 0.010 mM inhibitor (7a, 7b, 7c, 8a, 8b, or 8c), and 100 mM MES (pH 6.0). This solution was subject to incubation at room temperature for various time periods (0, 3, 10, 20, 30, 60, 80 min). After the incubation time, a 0.050 mL aliquot was removed and GDP-[U-^14 C]-fucose was added to a final concentration of 0.050 mM to initiate the fucosyltransfer reaction. After a 30 minute reaction time period, the solution was passed through a Dowex 1 column and the amount of product determined.
row,SMILES,slow substrate or inactivator of FucT V
1,CCCO[C@@H]1O[C@H](CO)[C@@H](O)[C@H](N(C)CCN2[C@H](CO)[C@@H](O)[C@H](O)[C@H](O)[C@@H]2C)[C@H]1NC(C)=O [7b],not a slow substrate or an inactivator
2,CCCO[C@@H]1O[C@H](CO)[C@@H](O)[C@H](NCCN2[C@H](CO)[C@@H](O)[C@H](O)[C@H](O)[C@@H]2C)[C@H]1NC(C)=O [7c],not a slow substrate or an inactivator
3,CCCO[C@@H]1O[C@H](COCc2ccccc2)[C@@H](O)[C@H](NCCN2[C@H](COCc3ccccc3)[C@@H](OCc3ccccc3)[C@H](OCc3ccccc3)[C@H](OCc3ccccc3)[C@@H]2C)[C@H]1NC(C)=O [7a],not a slow substrate or an inactivator
4,CCCO[C@@H]1O[C@H](COCc2ccccc2)[C@@H](O[C@@H]2O[C@H](CO)[C@H](O)[C@H](O)[C@H]2O)[C@H](NCCN2[C@H](COCc3ccccc3)[C@@H](OCc3ccccc3)[C@H](OCc3ccccc3)[C@H](OCc3ccccc3)[C@@H]2C)[C@H]1NC(C)=O [8a],not a slow substrate or an inactivator
5,CCCO[C@@H]1O[C@H](CO)[C@@H](O[C@@H]2O[C@H](CO)[C@H](O)[C@H](O)[C@H]2O)[C@H](NCCN2[C@H](CO)[C@@H](O)[C@H](O)[C@H](O)[C@@H]2C)[C@H]1NC(C)=O [8c],not a slow substrate or an inactivator
6,CCCO[C@@H]1O[C@H](CO)[C@@H](O[C@@H]2O[C@H](CO)[C@H](O)[C@H](O)[C@H]2O)[C@H](N(C)CCN2[C@H](CO)[C@@H](O)[C@H](O)[C@H](O)[C@@H]2C)[C@H]1NC(C)=O [8b],not a slow substrate or an inactivator

# Test system: not given
# Test: not given
# Conditions: known from literature (Hanozet et al.); cited from earlier work
row,SMILES,pKa
1,C[C@@H]1N[C@H](COCc2ccccc2)[C@@H](OCc2ccccc2)[C@H](OCc2ccccc2)[C@@H]1OCc1ccccc1 [compound 5],unusually low
